The text below walks through data of patent US9023817B2, “Use of albiflorin for anti-depression” (priority 2009, dated 2015).

Structures can show the parent of a compound that is named as a salt. Marks after values point to notes of the source that are not given here.

In assay [1] the test system is ICR mice. Put plainly: Tail suspension test in mice, administration by gavage. The assay is classed as in vivo. The conditions noted are these: 1 h after administration, over 4 min; for Immobility Time (s): listed as paeoniflorin. The procedure: In the second day, 1 h after the administration, the tail of mouse (2 cm away from the tip of the tail) was fixed to the connection line of 100 g tension transducer by adhesive plaster, and the mouse was hung upside down, with the head about 15 cm away from the experimental bench, two animals isolated from each other by a cardboard were simultaneously tested for each time. The transducer was connected to the Medlab bio-signals acquisition and processing system, after 2 min of adaption, the result over 4 min was recorded, and the immobility situation was converted into the time(s). The experimental data were expressed as X±SD, and the analysis of variance for the experimental results was carried out by SPSS 11.5 statistical software (purchased from SPSS Inc., USA).

Assay [2] concerns rats with chronic stress induced depression model. Put plainly: Body weights of rats with chronic stress induced depression (CUMS). The assay is classed as in vivo, SD rats. The conditions noted are these: 3 mg/kg/day gavage. The procedure:
(§1) The gavage was carried out along with the model establishment, once a day, for 21 days. […] Referring to the methods in the literature (Xu Jing, Li Xiaoqiu, Establishment and evaluation of the model of chronic stress induced depression, Chinese Journal of Behavioral Medical Science, 2003, 12(1): 14 16), the model was established (i.e., establishing animal model of anti-depression by means of CUMS): the foot electric shock (voltage: […] (5 minutes), drying at 45° C. (5 minutes), tail nipping (1 min), wet feeding (wet mat), reversed day and night (24 hours), fasting (24 hours), water deprivation (24 hours) were randomly scheduled within 21 days, one kind of stimulations was given for each day, except for the animals of vehicle group, the others were separately caged with free diet, at the room temperature of (24±1)° C., with the relative humidity of (60±10)%. All parameters to be tested were expressed as Mean±SD (X±s), and tested by means of analysis of variance (ANOVA) in SPSS 12.0 software (purchased from SPSS Inc., USA), p<0.05 means that there was a significant difference.

In assay [3] the test system is ICR mice. Kind of assay: Tail suspension test in mice, extract of Radix paeoniae alba. The assay is classed as in vivo. The conditions noted are these: 3.5 mg/kg/d gavage for 2 days; 1 hour after last administration; 4 min; Hydrochloride.
Procedure: Each group was administered at a dosage of 0.2 ml/10 g body weight. The vehicle group was administered with deionized water by gavage once a day, for 2 days. The test was carried out at 1 hour after the last administration. The tail of mouse (2 cm away from the tip of the tail) was fixed to the connection line of 100 g tension transducer with adhesive plaster, and the mouse was hung upside down, with the head about 15 cm away from the experimental bench, the transducer was connected to the Medlab bio-signals acquisition and processing system, after 2 min of adaption, the immobility time(s) for 4 min was recorded.
The experimental data was expressed as X±s, analyzed by SPSS 13.0 statistical software by means of One-Way ANOVA test.
Assay [4] relates to rats with chronic stress induced depression model. Kind of assay: Consumption of 1% aqueous sucrose, chronic stress induced depression. The assay is classed as in vivo, SD rats. The settings on record: 3 mg/kg/day gavage, 1% aqueous sucrose for 1 hour. The procedure:
The gavage was carried out along with the model establishment, once a day, for 21 days. […] Referring to the methods in the literature (Xu Jing, Li Xiaoqiu, Establishment and evaluation of the model of chronic stress induced depression, Chinese Journal of Behavioral Medical Science, 2003, 12(1): 14 16), the model was established (i.e., establishing animal model of anti-depression by means of CUMS): the foot electric shock (voltage: […] (5 minutes), drying at 45° C. […] All parameters to be tested were expressed as Mean±SD (X±s), and tested by means of analysis of variance (ANOVA) in SPSS 12.0 software (purchased from SPSS Inc., USA), p<0.05 means that there was a significant difference.

For assay [5] the test system is unchanged. Kind of assay: Open-field test, chronic stress induced depression. The assay is classed as in vivo, SD rats. The conditions noted are these: 3 mg/kg/day gavage for 21 days, 3 minutes, Hydrochloride. The procedure: as §1, with “(60±10)%. The open-field device was of 40 cm in height, 80 cm in both length and width, without cap, the inner walls and the bottom of the device are black, and the bottom was divided into 25 squares with equal area. The numbers of squares that the animals pass through were designated as the score of horizontal movement, and the numbers of standing (with the forelegs above 1 cm away from the ground) were designated as the score of vertical movement. Each animal was measured for one time, 3 minutes for each measurement.” for “(60±10)%.”

Assay [6] has the same test system. Put plainly: Jump stair test, chronic stress induced depression. The conditions noted are these: 3 mg/kg/day gavage for 21 days, 5 minutes, Hydrochloride; for Error times in testing period: after 24 hours. The assay is classed as in vivo, SD rats. The procedure: as §1, with “(60±10)%. […] A wooden platform (height: 5 cm, diameter: 8 cm) was placed into the box at the left back corner. Animals were placed into the response box to adapt to the environment for 3 minutes, and then the box was immediately electrified with […] alternating current, the normal response of the animal which suffered from electric shock was to jump onto the platform in order to avoid such harmful stimulation. Most animals were likely to jump down to the copper railings again or for several times, and then quickly jump back to the platform after suffering from the electric shock, being trained like this for 5 minutes, the times that the rats suffered from the electric shock were designated as error times. The test was carried out again after 24 hours, rats were placed on the platform and the box was charged, timing and recording the error times for 5 minutes.” for “(60±10)%.”

Assay [7] relates to ICR mice. Kind of assay: Forced swimming test in mice. The assay is classed as in vivo. The conditions noted are these: 1 h after administration, last 4 min; for Immobility Time (s): listed as paeoniflorin. The procedure: Each group was administered by gavage at a dose of 0.2 ml/10 g weight, for two days, deionized water was administered to vehicle group.
In the second day, 1 h after the administration, the mice were placed separately into a water cylinder with 20 cm of height, 18 cm of diameter, 10 cm of depth, 23±2° C. of water temperature; observing each for 6 min, after 2 min of adaption, the immobility time over the last 4 min was recorded.
The data was expressed as x±s, analyzed by SPSS 13.0 statistical software by means of One-Way ANOVA test, the homogeneity of variance was tested by LSD and SNK test.

In assay [8] the test system is ICR mice. Kind of assay: Reserpine-induced hypothermia test in mice. The assay is classed as in vivo. The settings on record: 3 mg/kg gavage 7 days, reserpine 2 mg/kg i.p., rectal temperature 4 hours after reserpine. The procedure:
50 mice were randomly divided into five groups (n=10 for each group): high-dose group (14 mg*kg^−1), medium-dose group (7 mg*kg^−1), low-dose group (3.5 mg*kg^−1) of Albiflorin; control group of paroxetine (3 mg/kg); model group of physiological saline. The gavage was carried out for 7 days. Rectal temperatures of mice were measured at 1 hour after the administration on the 8th day, then reserpine was administered by intraperitoneal injection at a dose of 2 mg/kg, rectal temperatures of mice were measured again at 4 hours after the injection of reserpine. The depth into anus of thermometer and the time for each temperature measurement of mice was coincident. The experimental data was expressed as X±SD, and the analysis of variance for the experimental results was carried out by SPSS 11.5 statistical software (purchased from SPSS Inc., USA), the experimental results were shown in Table 4.

Where [9] appears, read: 3.5 mg/kg/d by gavage for two days.
Where [10] appears, read: Day 14, listed as Positice control, Hydrochloride.
Setting [11] is: Day 14, listed as Prozac, Hydrochloride.
[12] abbreviates: Day 21, listed as Positice control, Hydrochloride.
Setting [13] is: Day 21, listed as Prozac, Hydrochloride.
[14] abbreviates: 7 mg/kg/d by gavage for two days.
[15] abbreviates: 14 mg/kg/d by gavage for two days.

For the compound `CNCCC(Oc1ccc(C(F)(F)F)cc1)c1ccccc1` (stereo not drawn) [Positive control, Fluoxetine Hydrochloride], the “Immobility Time” value is 66.21 ± 33.253 s in the assay with ICR mice [1] (setting [9]) and “significantly reduced” with ICR mice [3]. In addition, the body weights in assay [2] (Day 0) is 257.19 ± 9.90 g; in assay [2] (Day 7), 265.90 ± 13.94 g; in assay [2] (setting [10]) it was 280.64 ± 12.32 g; in assay [2] (setting [11]) it was “significantly increased”; in assay [2] (setting [12]) it was 291.00 ± 11.31 g; in assay [2] (setting [13]) it was “significantly increased”. For the same compound, the “comsumption of aqeous sucrose” value in assay [4] (Day 0) is 12.67 ± 5.53 mL; in assay [4] (Day 7), 10.00 ± 4.24 mL; in assay [4] (setting [10]), 15.00 ± 2.22 mL; in assay [4] (setting [11]) it was “significantly increased”; in assay [4] (setting [12]), 14.91 ± 2.68 mL; in assay [4] (setting [13]) it was “significantly increased”. In addition, the “Score of horizontal movement” value in assay [5] (listed as Positice control) is given as 28.09 ± 18.55; in assay [5] (listed as Prozac), “significantly increased”. In addition, the “Score of vertical movement” value in assay [5] (listed as Positice control) was 7.00 ± 3.90; in assay [5] (listed as Prozac), “significantly increased”. Further, the “Error times in training period” value is given as 2.09 ± 1.22 in assay [6] and “significantly reduced” in assay [6] (listed as Prozac). In addition, the “Error times in testing period” value in assay [6] is 0.72 ± 1.19; in assay [6] (listed as Prozac), “significantly reduced”.

On to `C[C@@]12C[C@@]3(O)O[C@@H](O1)[C@]1(COC(=O)c4ccccc4)[C@H]3C[C@@]12O[C@@H]1O[C@H](CO)[C@@H](O)[C@H](O)[C@H]1O` [Paeoniflorin], for which the “Immobility Time” value in the assay with ICR mice [1] (setting [9]) worked out at 85.62 ± 31.225 s; with ICR mice [1] (setting [14]), 76.83 ± 36.452 s; with ICR mice [1] (setting [15]), 81.32 ± 32.756 s; in the assay with ICR mice [7] (setting [9]), 58.60 ± 32.320 s; with ICR mice [7] (setting [14]), 43.94 ± 38.341 s; in the assay with ICR mice [7] (setting [15]) it was 50.39 ± 31.257 s. Further, the “Immobility Time (s)” value with ICR mice [1] (setting [9]), in the assay on ICR mice [1] (setting [14]), in the assay with ICR mice [1] (setting [15]), with ICR mice [7] (setting [9]), with ICR mice [7] (setting [14]) and in the assay with ICR mice [7] (setting [15]) was “not significantly different from the model group” in each case.

For `Fc1ccc([C@@H]2CCNC[C@H]2COc2ccc3c(c2)OCO3)cc1` [Paroxetine], the results for the “Hypothermia value (° C.)” value with ICR mice [8] and in the assay on ICR mice [8] (listed as paroxetine) were 2.38 ± 0.69** ° C and “significantly recede”, respectively.
